Values quoted from earlier work in US12343434B2, “Hybrid membrane camouflaged nanomedicine loaded with oxidative phosphorylation inhibitor and preparing method thereof” (Henan University, priority 2021, dated 2025).

Details: background statement

- blood half-life: extremely short
Structure (SMILES): CCc1n(CC(=O)O[C@@H]2C[C@H](C)CC[C@H]2C(C)C)c2ccccc2[n+]1C.[Cl-] [Gboxin, 1-carboxymethyl-2-ethyl-3-methyl-1H-benzimidazole-3-ammonium L-menthol ester chloride]
